Laboratory results taken from patent publication US12612412B2, “Antiviral heterocyclic compounds” (Enanta Pharmaceuticals, Inc., priority 2021, dated 2026).

Key:
[1] = system: HMPV clinical isolate TN/1501/A1; test: HMPV antiviral assay Method-B (clinical isolate TN/1501/A1 in LLC-MK2 cells, ATP-Lite readout); type: cell-based, Human metapneumovirus (HMPV); conditions: human metapneumovirus, LLC-MK2, 144 h, hMPV WT1501 (clinical isolate TN/1501/A1), 6 days
Outline: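 LLC-MK2 cells infected in suspension with TN/1501/A1 at MOI 0.014 in serum-free medium with 2 μg/mL TPCK-trypsin (final), incubated 6 days at 37° C. Compounds tested in duplicate, 10-point 3-fold dilutions from 10 μM. Cell health read by ATP-Lite luminescence, normalised to virus-only and cells-only controls; EC50 by four-parameter logistic fit.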

[2] = system: genotype A, "Long" strain RSV; test: RSV-A assay (CPE protection in Hep-2 cells, ATPlite readout); type: cell-based, Human respiratory syncytial virus (HRSV); conditions: human respiratory syncytial virus, genotype A “Long” strain RSV, MOI 0.1, CPE protection, read-out: Human RSV-A (“Long”)
Outline: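 Hep-2 cells (8,000/well) were treated with 2-fold serial compound dilutions in duplicate and infected with RSV at MOI 0.1. After 5 days, protection from cytopathic effect was measured as cell viability by ATPlite luminescence, and EC50 values were derived.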

SMILES | EC50 [1] [nM] | EC50 [2] [nM]
COc1cc(C(=O)NC[C@](O)(c2cc3c(c(-c4ccc(F)c(F)c4Cl)n2)OC[C@]3(C)C(N)=O)C(F)(F)F)cc2cn(C(F)F)nc12 [Example 776] | < 500 | < 200
Cc1nc2c(OC3CC3)cc(C(=O)NC[C@](O)(c3cc4c(c(-c5ccc(F)c(F)c5Cl)n3)OC[C@]4(C)C(N)=O)C(F)(F)F)cc2cc1Cl [Example 777] | < 500 | < 200
COc1cc(C(=O)NC[C@](O)(c2cc3c(c(-c4ccc(F)c(F)c4Cl)n2)OC[C@]3(C)C(N)=O)C(F)(F)F)cc2cc(Br)cnc12 [Example 778] | < 500 | < 200
Cc1cnc2c(Cl)cc(C(=O)NC[C@](O)(c3cc4c(c(-c5ccc(F)c(F)c5Cl)n3)OC[C@]4(C)C(N)=O)C(F)(F)F)cc2c1 [Example 779] | < 500 | < 200
C[C@]1(C(N)=O)COc2c1cc([C@@](O)(CNC(=O)c1cc(Cl)c3nn(C4CC4)cc3c1)C(F)(F)F)nc2-c1ccc(F)c(F)c1Cl [Example 780] | < 500 | < 200
Cc1cnc2c(OC(F)F)cc(C(=O)NC[C@](O)(c3cc4c(c(-c5ccc(F)c(F)c5Cl)n3)OC[C@]4(C)C(N)=O)C(F)(F)F)cc2c1 [Example 781] | < 500 | < 200
COc1cc(C(=O)NC[C@](O)(c2cc3c(c(-c4cc(F)c(F)c(Cl)c4)n2)OC[C@]3(C)C(N)=O)C(F)(F)F)cc2cn(C3CC3)nc12 [Example 782] | < 500 | < 200
COc1cc(C(=O)NC[C@](O)(c2cc3c(c(-c4cc(F)c(F)c(Cl)c4)n2)OC[C@]3(C)C(N)=O)C(F)(F)F)cc2cn(C(F)F)nc12 [Example 783] | < 500 | < 200
COc1cc(C(=O)NC[C@](O)(c2cc3c(c(-c4cc(F)c(F)c(Cl)c4)n2)OC[C@]3(C)C(N)=O)C(F)(F)F)cc2cc(Cl)c(C)nc12 [Example 784] | < 500 | < 200
COc1cc(C(=O)NC[C@](O)(c2cc3c(c(-c4cc(F)c(F)c(Cl)c4)n2)OC[C@]3(C)C(N)=O)C(F)(F)F)cc2cc(Br)cnc12 [Example 785] | < 500 | < 200
COc1cc(C(=O)NC[C@](O)(c2cc3c(c(-c4cc(F)c(F)c(Cl)c4)n2)OC[C@]3(C)C(N)=O)C2CC2)cc2cc(Cl)c(C)nc12 [Example 786] | < 500 | < 200
COc1cc(C(=O)NC[C@](O)(c2cc3c(c(-c4cc(F)c(F)c(Cl)c4)n2)OC[C@]3(C)C(N)=O)C2CC2)cc2cn(C3CC3)nc12 [Example 787] | < 500 | < 200
COc1cc(C(=O)NC[C@](O)(c2cc3c(c(-c4cc(F)c(F)c(Cl)c4)n2)OC[C@]3(C)C(N)=O)C2CC2)cc2cn(C(F)F)nc12 [Example 788] | < 500 | < 200
COc1cc(C(=O)NC[C@](O)(c2cc3c(c(-c4cc(F)c(F)c(Cl)c4)n2)OC[C@]3(C)C(N)=O)C2CC2)cc2cc(Br)cnc12 [Example 789] | < 500 | < 200
C[C@]1(C(N)=O)COc2c1cc([C@@](O)(CNC(=O)c1cc(Cl)c3nn(C4CC4)cc3c1)C1CC1)nc2-c1cc(F)c(F)c(Cl)c1 [Example 790] | < 500 | < 200
COc1cc(C(=O)NC[C@](O)(c2cc3c(c(-c4cc(F)c(F)c(Cl)c4)n2)OC[C@]3(C)C(N)=O)C2CC2)cc2cn(C3(F)CC3)nc12 [Example 791] | < 500 | < 200
Cc1cnc2c(Cl)cc(C(=O)NC[C@](O)(c3cc4c(c(-c5cc(F)c(F)c(Cl)c5)n3)OC[C@]4(C)C(N)=O)C3CC3)cc2c1 [Example 792] | < 500 | < 200
COc1cc(C(=O)NC[C@](O)(c2cc3c(c(-c4ccc(C(F)(F)F)cc4)n2)OC[C@]3(C)C(N)=O)C2CC2)cc2cn(C3CC3)nc12 [Example 793] | < 500 | < 200
COc1cc(C(=O)NC[C@](O)(c2cc3c(c(-c4ccc(C(F)(F)F)cc4)n2)OC[C@]3(C)C(N)=O)C2CC2)cc2cn(C3(F)CC3)nc12 [Example 794] | < 500 | < 200

Results, then the compound that gave them:

EC50 [1] [nM] | EC50 [2] [nM] | SMILES
< 500 | < 200 | Cc1cnc2c(OC(F)F)cc(C(=O)NC[C@](O)(c3cc4c(c(-c5ccc(F)c(F)c5Cl)n3)OC[C@]4(C)C(N)=O)C3(F)CC3)cc2c1 [Example 746]
< 500 | < 200 | COc1cc(C(=O)NC[C@](O)(c2cc3c(c(-c4ccc(F)c(F)c4Cl)n2)OC[C@]3(C)C(N)=O)C2(F)CC2)cc2cc(Cl)c(C)nc12 [Example 747]
< 500 | < 200 | COc1cc(C(=O)NC[C@](O)(c2cc3c(c(-c4ccc(F)c(F)c4Cl)n2)OC[C@]3(C)C(N)=O)C2(F)CC2)cc2cn(C(F)F)nc12 [Example 748]
< 500 | < 200 | COc1cc(C(=O)NC[C@](O)(c2cc3c(c(-c4ccc(F)c(C(F)(F)F)c4)n2)OC[C@]3(C)C(N)=O)C2(F)CC2)cc2cn(C3CC3)nc12 [Example 749]
< 500 | < 200 | Cc1cnc2c(OC(F)F)cc(C(=O)NC[C@](O)(c3cc4c(c(-c5ccc(F)c(C(F)(F)F)c5)n3)OC[C@]4(C)C(N)=O)C3(F)CC3)cc2c1 [Example 750]
< 500 | < 200 | COc1cc(C(=O)NC[C@](O)(c2cc3c(c(-c4ccc(F)c(C(F)(F)F)c4)n2)OC[C@]3(C)C(N)=O)C2(F)CC2)cc2cn(C(F)F)nc12 [Example 751]
< 500 | < 200 | COc1cc(C(=O)NC[C@](O)(c2cc3c(c(-c4ccc(F)c(Cl)c4F)n2)OC[C@]3(C)C(N)=O)C2(F)CC2)cc2cn(C3CC3)nc12 [Example 752]
< 500 | < 200 | Cc1cnc2c(OC(F)F)cc(C(=O)NC[C@](O)(c3cc4c(c(-c5ccc(F)c(Cl)c5F)n3)OC[C@]4(C)C(N)=O)C3(F)CC3)cc2c1 [Example 753]
< 500 | < 200 | COc1cc(C(=O)NC[C@](O)(c2cc3c(c(-c4ccc(F)c(Cl)c4F)n2)OC[C@]3(C)C(N)=O)C2(F)CC2)cc2cn(C(F)F)nc12 [Example 754]
< 500 | < 200 | C[C@]1(C(N)=O)COc2c1cc([C@@](O)(CNC(=O)c1cc(Cl)c3nn(C4CC4)cc3c1)C1(F)CC1)nc2-c1ccc(F)cc1 [Example 755]
< 500 | < 200 | COc1cc(C(=O)NC[C@](O)(c2cc3c(c(-c4ccc(F)cc4)n2)OC[C@]3(C)C(N)=O)C2(F)CC2)cc2cn(C3(F)CC3)nc12 [Example 756]
< 500 | < 200 | C[C@]1(C(N)=O)COc2c1cc([C@@](O)(CNC(=O)c1cc(Cl)c3nn(C4CC4)cc3c1)C1(F)CC1)nc2-c1ccc(F)c(F)c1F [Example 757]
< 500 | < 200 | COc1cc(C(=O)NC[C@](O)(c2cc3c(c(-c4cc(Cl)c(F)cc4F)n2)OC[C@]3(C)C(N)=O)C2(F)CC2)cc2cn(C3CC3)nc12 [Example 758]
< 500 | < 200 | C[C@]1(C(N)=O)COc2c1cc([C@@](O)(CNC(=O)c1cc(Cl)c3nn(C4CC4)cc3c1)C1(F)CC1)nc2-c1cc(Cl)c(F)cc1F [Example 759]
< 500 | < 200 | COc1cc(C(=O)NC[C@](O)(c2cc3c(c(-c4cc(Cl)c(F)cc4F)n2)OC[C@]3(C)C(N)=O)C2(F)CC2)cc2cc(Cl)c(C)nc12 [Example 760]
< 500 | < 200 | COc1cc(C(=O)NC[C@](O)(c2cc3c(c(-c4cccc(F)c4Cl)n2)OC[C@]3(C)C(N)=O)C(F)(F)F)cc2cn(C3CC3)nc12 [Example 761]
< 500 | < 200 | COc1cc(C(=O)NC[C@](O)(c2cc3c(c(-c4ccc(F)cc4)n2)OC[C@]3(C)C(N)=O)C2CC2)cc2cc(C)nnc12 [Example 762]
< 500 | < 200 | COc1cc(C(=O)NC[C@](O)(c2cc3c(c(-c4ccc(F)cc4)n2)OC[C@]3(C)C(N)=O)C2CC2)cc2cc(C3CC3)nnc12 [Example 763]
< 500 | < 200 | COc1cc(C(=O)NC[C@](O)(c2cc3c(c(-c4ccc5c(c4)OC(F)(F)O5)n2)OC[C@]3(C)C(N)=O)C(F)(F)F)cc2cc(C)nnc12 [Example 764]
< 500 | < 200 | COc1cc(C(=O)NC[C@](O)(c2cc3c(c(-c4ccc5c(c4)OC(F)(F)O5)n2)OC[C@]3(C)C(N)=O)C(F)(F)F)cc2cc(C3CC3)nnc12 [Example 765]
< 500 | < 200 | COc1cc(C(=O)NC[C@](O)(c2cc3c(c(-c4cc(Cl)c(F)cc4F)n2)OC[C@]3(C)C(N)=O)C2(F)CC2)cc2cn(C(F)F)nc12 [Example 766]
< 500 | < 200 | COc1cc(C(=O)NC[C@](O)(c2cc3c(c(-c4cc(Cl)c(F)cc4F)n2)OC[C@]3(C)C(N)=O)C2(F)CC2)cc2cc(Br)cnc12 [Example 767]
< 500 | < 200 | COc1cc(C(=O)NC[C@](O)(c2cc3c(c(-c4ccc(F)c(Cl)c4F)n2)OC[C@]3(C)C(N)=O)C2(F)CC2)cc2cc(Br)cnc12 [Example 768]
< 500 | < 200 | Cc1cnc2c(Nc3cnccn3)cc(C(=O)NC[C@](O)(c3cc4c(c(-c5ccc6c(c5)OC(F)(F)O6)n3)OC[C@]4(C)C(N)=O)C3CC3)cc2c1 [Example 773]
< 500 | < 200 | COc1cc(C(=O)NC[C@](O)(c2cc3c(c(-c4ccc(F)c(F)c4Cl)n2)OC[C@]3(C)C(N)=O)C(F)(F)F)cc2cc(Cl)c(C)nc12 [Example 774]
< 500 | < 200 | COc1cc(C(=O)NC[C@](O)(c2cc3c(c(-c4ccc(F)c(F)c4Cl)n2)OC[C@]3(C)C(N)=O)C(F)(F)F)cc2cn(C3(F)CC3)nc12 [Example 775]
